From BindingDB's records for patent US11814384 (Kinnate Biopharma, 2023)
Entries after “also recorded” stand apart in the source; their conditions may differ.

Biological target: Serine/threonine-protein kinase B-raf (Homo sapiens, UniProt P15056)
Test: Enzymatic BRAF Kinase Activity Assay
Description: Small molecule inhibition of the BRAF kinases was measured using ADP-Glo assay. In the assay, […], resulting in luciferase reaction and luminescent readout with light generated proportional to the relative kinase activity. Compounds diluted in DMSO were used in 10-point, 3-fold dose curve for both assays. Final concentrations of 6 nM BRAF (CarnaBio, Cat. 09-122) or 3 nM RAF1 (CarnaBio, Cat. 09-125) and 30 nM MEK1 substrate (Millipore, Cat. 14-420) were incubated with 3 µM ATP, 10 mM MgCl2, 0.003% Brij-35, 2 mM DTT, 0.05% BSA, 1 mM EGTA, and 50 mM HEPES for 90 minutes at room temp prior to addition of ADP-Glo reagent (Promega, Cat. V9102) for 40 minutes, and detection reagent for 45 minutes. Luminescence was read on an Envision plate reader (PerkinElmer) and percent remaining activity was used to calculate IC50 using a four-parameter fit model using Dotmatics Knowledge Solutions Studies curve fitting (Dotmatics, Bishops Stortford, UK, CM23).

Sequence of Serine/threonine-protein kinase B-raf (P15056 whole entry): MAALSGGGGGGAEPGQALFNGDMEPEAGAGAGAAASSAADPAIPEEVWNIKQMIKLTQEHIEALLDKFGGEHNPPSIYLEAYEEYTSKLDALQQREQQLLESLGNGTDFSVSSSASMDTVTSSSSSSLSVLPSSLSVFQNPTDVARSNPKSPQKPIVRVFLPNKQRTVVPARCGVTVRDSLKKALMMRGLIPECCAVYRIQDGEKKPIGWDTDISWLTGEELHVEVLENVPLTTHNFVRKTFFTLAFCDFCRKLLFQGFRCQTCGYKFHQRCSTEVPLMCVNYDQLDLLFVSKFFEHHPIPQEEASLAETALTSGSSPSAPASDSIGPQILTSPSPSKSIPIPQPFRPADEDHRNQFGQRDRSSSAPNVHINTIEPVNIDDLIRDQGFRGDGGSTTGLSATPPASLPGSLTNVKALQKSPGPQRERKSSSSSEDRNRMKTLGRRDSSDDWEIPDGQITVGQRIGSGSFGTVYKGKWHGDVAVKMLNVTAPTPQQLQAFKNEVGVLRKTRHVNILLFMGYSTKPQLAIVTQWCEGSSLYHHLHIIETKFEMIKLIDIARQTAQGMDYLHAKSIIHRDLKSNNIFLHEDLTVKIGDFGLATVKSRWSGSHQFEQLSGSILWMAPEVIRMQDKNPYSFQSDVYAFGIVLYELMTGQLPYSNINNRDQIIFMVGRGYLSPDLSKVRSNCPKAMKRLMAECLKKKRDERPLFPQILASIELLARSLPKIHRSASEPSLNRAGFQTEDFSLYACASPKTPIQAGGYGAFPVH

| IC50 | Structure (SMILES) |
| --- | --- |
| in the range around 5.5 nM | Cc1cc(F)c(NC(=O)N2CC[C@@H](CC(F)(F)F)C2)cc1-c1cc(N2CCOCC2)c2nn(C)cc2c1 [US11814384, Example 1] |
| in the range around 5.5 nM | Cc1cc(F)c(NC(=O)N2CC[C@@H](CC(F)(F)F)C2)cc1-c1cc(N2CCOCC2)c2nn(C)c(C)c2c1 [US11814384, Example 16] |
| in the range around 5.5 nM | Cc1cc(F)c(NC(=O)N2CC[C@@H](CC(F)(F)F)C2)cc1-c1cc(N2CCOCC2)c2nccn2c1 [US11814384, Example 17] |
| 1 to 10 nM | Cc1cc(F)c(NC(=O)N2CC=C(C(F)(F)C(F)(F)F)C2)cc1-c1cc(N2CCOCC2)c2nccn2c1 [US11814384, Example 22] |
| 1 to 10 nM | Cc1cc(F)c(NC(=O)N2CCC(C(F)(F)C(F)(F)F)C2)cc1-c1cc(N2CCOCC2)c2nccn2c1 (stereo not drawn) [US11814384, Example 23] |
| in the range around 5.5 nM | Cc1ccc(NC(=O)c2ccnc(C(F)(F)F)c2)cc1-c1cc(N2CCOCC2)c2nc3c(n2c1)COCC3 [US11814384, Example 33] |
| 1 to 10 nM | Cc1ccc(NC(=O)c2ccnc(C(F)(F)F)c2)cc1-c1cc(N2CCOCC2)c2nc3c(n2c1)CC(O)CC3 (stereo not drawn) [US11814384, Example 34] |
| in the range around 5.5 nM | Cc1ccc(NC(=O)c2ccnc(C(F)(F)F)c2)cc1-c1cc(N2CCOCC2)c2nc3c(n2c1)CCOC3 [US11814384, Example 36] |
| in the range around 5.5 nM | Cc1ccc(NC(=O)N2CC[C@@H](CC(F)(F)F)C2)cc1-c1cc(N2CC3CCC(C2)O3)c2nccn2c1 [US11814384, Example 38] |
| in the range around 5.5 nM | Cc1cc(F)c(NC(=O)c2ccn(C(C)(C)C)c2)cc1-c1cc(N2CCOCC2)c2nccn2c1 [US11814384, Example 43] |
| in the range around 5.5 nM | Cc1cc(F)c(NC(=O)[C@@H]2CCN(CC(F)(F)F)C2)cc1-c1cc(N2CCOCC2)c2nccn2c1 [US11814384, Example 46] |
| in the range around 5.5 nM | Cc1cc(F)c(NC(=O)N2CCOC(C(C)(C)C)C2)cc1-c1cc(N2CCOCC2)c2nccn2c1 (stereo not drawn) [US11814384, Example 50] |
| in the range around 5.5 nM | Cc1cc(F)c(NC(=O)c2cn(C(C)(C)C)cc2F)cc1-c1cc(N2CCOCC2)c2nccn2c1 [US11814384, Example 66] |
| in the range around 5.5 nM | Cc1cc(F)c(NC(=O)c2cn(C(C)(C)C)cn2)cc1-c1cc(N2CCOCC2)c2nccn2c1 [US11814384, Example 67] |
| in the range around 5.5 nM | Cc1cc(F)c(NC(=O)N2CC=C(C3(C)CC3)C2)cc1-c1cc(N2CCOCC2)c2nccn2c1 [US11814384, Example 69] |
| in the range around 5.5 nM | Cc1cc(F)c(NC(=O)c2cncc(C(F)(F)F)c2)cc1-c1cc(N2CCOCC2)c2nccn2c1 [US11814384, Example 70] |
| in the range around 5.5 nM | Cc1ccc(NC(=O)c2cnn(C(C)(C)C)c2F)cc1-c1cc(N2CCOCC2)c2nccn2c1 [US11814384, Example 73] |
| in the range around 5.5 nM | Cc1cc(F)c(NC(=O)N2CCC(C(C)(C)C(F)(F)F)C2)cc1-c1cc(N2CCOCC2)c2nccn2c1 (stereo not drawn) [US11814384, Example 74] |
| in the range around 5.5 nM | CCc1nc2cc(-c3cc(C(=O)Nc4cn(C(C)(C)C)nc4F)c(F)cc3C)cc(N3CCOCC3)n2n1 [US11814384, Example 76] |
| in the range around 5.5 nM | Cc1cc(F)c(NC(=O)c2cncc(C(C)(F)F)c2)cc1-c1cc(N2CCOCC2)c2nccn2c1 [US11814384, Example 84] |
| in the range around 5.5 nM | Cc1cc(F)c(NC(=O)c2cn(C(C)(C)C)nn2)cc1-c1cc(N2CCOCC2)c2nccn2c1 [US11814384, Example 86] |
| in the range around 55 nM | Cc1ccc(NC(=O)c2cc(C(C)(C)C)ncc2F)cc1-c1cc(N2CCOCC2)c2nccn2c1 [US11814384, Example 95] |
| in the range around 5.5 nM | CC(C)(C)n1ncc(C(=O)Nc2cc(-c3cc(N4CCOCC4)c4nccn4c3)c(Cl)cc2F)c1F [US11814384, Example 98] |
| in the range around 55 nM | O=C(Nc1cc(-c2cc(N3CCOCC3)c3nccn3c2)c(F)cc1F)N1CC[C@@H](CC(F)(F)F)C1 [US11814384, Example 99] |
| in the range around 5.5 nM | Cc1cc(F)c(NC(=O)c2cnn(C(C)(C)C)c2F)cc1-c1cc(N2CCOCC2)c2nccn2c1 [US11814384, Example 103] |
| in the range around 5.5 nM | CC(C)(C)n1ncc(C(=O)Nc2ccc(Cl)c(-c3cc(N4CCOCC4)c4nccn4c3)c2)c1F [US11814384, Example 110] |

| IC50 | Structure (SMILES) |
| --- | --- |
| in the range around 55 nM | Cc1cc(F)c(NC(=O)c2cnn(C(C)(C)C)c2F)cc1-c1cc(N2CCOCC2)c2ncc(F)n2c1 [US11814384, Example 111] |
| in the range around 55 nM | Cc1cc(F)c(N)cc1-c1cc(N2CCOCC2)c2nccn2c1 [US11814384, Example 112] |
| in the range around 5.5 nM | Cc1cc(F)c(NC(=O)c2ccnc(C(C)C(F)F)c2)cc1-c1cc(N2CCOCC2)c2nccn2c1 (stereo not drawn) [US11814384, Example 113] |
| in the range around 5.5 nM | Cc1cc(F)c(NC(=O)c2cn(C(C)(C)C)c(F)n2)cc1-c1cc(N2CCOCC2)c2nccn2c1 [US11814384, Example 118] |
| in the range around 5.5 nM | Cc1cc(F)c(NC(=O)N2CC(F)C(C(C)C)C2)cc1-c1cc(N2CCOCC2)c2nccn2c1 (stereo not drawn) [US11814384, Example 119] |
| in the range around 5.5 nM | Cc1cc(F)c(NC(=O)c2cnn(C(C)(C)C(F)F)c2)cc1-c1cc(N2CCOCC2)c2nccn2c1 [US11814384, Example 124] |
| in the range around 5.5 nM | Cc1cc(F)c(NC(=O)c2cnn(C(F)C(C)(C)F)c2)cc1-c1cc(N2CCOCC2)c2nccn2c1 (stereo not drawn) [US11814384, Example 125] |
| in the range around 5.5 nM | Cc1cc(F)c(NC(=O)c2cnn(C(C)(C)C(F)(F)F)c2)cc1-c1cc(N2CCOCC2)c2nccn2c1 [US11814384, Example 136] |
| in the range around 5.5 nM | Cc1ncc(NC(=O)c2cnn(C(C)(C)C)c2F)cc1-c1cc(N2CCOCC2)c2nccn2c1 [US11814384, Example 137] |
| in the range around 5.5 nM | Cc1cnc(NC(=O)c2cnn(C(C)(C)C)c2F)cc1-c1cc(N2CCOCC2)c2nccn2c1 [US11814384, Example 138] |
| in the range around 5.5 nM | Cc1cn2cc(-c3cc(NC(=O)c4cn(C(C)(C)C)cn4)c(F)cc3C)cc(N3CCOCC3)c2n1 [US11814384, Example 140] |
| in the range around 5.5 nM | Cc1cc(F)c(NC(=O)c2nn(C(C)(C)C)cc2F)cc1-c1cc(N2CCOCC2)c2nccn2c1 [US11814384, Example 141] |
| in the range around 5.5 nM | Cc1ccc(NC(=O)c2nn(C(C)(C)C)cc2F)cc1-c1cc(N2CCOCC2)c2nccn2c1 [US11814384, Example 142] |
| in the range around 5.5 nM | Cc1cn2cc(-c3cc(NC(=O)c4cnn(C(C)(C)C)c4F)c(F)cc3C)cc(N3CCOCC3)c2n1 [US11814384, Example 143] |
| in the range around 5.5 nM | Cc1cn2cc(-c3cc(NC(=O)c4cn(C(C)(C)C)c(F)n4)c(F)cc3C)cc(N3CCOCC3)c2n1 [US11814384, Example 148] |
| in the range around 5.5 nM | CC(C)(C)n1cc(C(=O)Nc2cc(-c3cc(N4CCOCC4)c4nccn4c3)c(Cl)cc2F)nc1F [US11814384, Example 151] |
| in the range around 5.5 nM | Cc1cc(F)c(NC(=O)c2cnn(C(C)(C)C)c2F)cc1-c1cc(C2=CCOCC2)c2nccn2c1 [US11814384, Example 153] |
| in the range around 5.5 nM | Cc1c(-c2cc(N3CCOCC3)c3nccn3c2)cc(NC(=O)c2cnn(C(C)(C)C)c2F)c(F)c1F [US11814384, Example 159] |
| in the range around 5.5 nM | Cc1cc(F)c(NC(=O)c2ncn(C(C)(C)C)c2F)cc1-c1cc(N2CCOCC2)c2nccn2c1 [US11814384, Example 160] |
| in the range around 5.5 nM | Cc1cc(F)c(NC(=O)c2cnn(C(C)(C)C)c2F)cc1-c1cc(N2CCOCC2)n2nccc2c1 [US11814384, Example 162] |
| in the range around 5.5 nM | Cc1cc(F)c(NC(=O)c2cnn(C34CC(C3)C4)c2)cc1-c1cc(N2CCOCC2)c2nccn2c1 [US11814384, Example 164] |
| in the range around 5.5 nM | Cc1cc(F)c(NC(=O)c2ccnc(N3CCCC3)c2)cc1-c1cc(N2CCOCC2)c2nccn2c1 [US11814384, Example 166] |
| in the range around 5.5 nM | Cc1cc(F)c(NC(=O)c2cnn(C(C)(C)C)c2F)cc1-c1cc(N2CC3CCC(C2)O3)c2nccn2c1 [US11814384, Example 180] |
| in the range around 5.5 nM | Cc1cc(F)c(NC(=O)c2cnn(C(C)(C)C)c2F)cc1-c1cc(N2CCOCC2)c2ncnn2c1 [US11814384, Example 181] |
| in the range around 5.5 nM | Cc1cc(F)c(NC(=O)c2cnc(C(C)(C)C)o2)cc1-c1cc(N2CCOCC2)c2nccn2c1 [US11814384, Example 183] |

| Structure (SMILES) | IC50 |
| --- | --- |
| Cc1cc(F)c(NC(=O)N2CCC(C3(C(F)(F)F)CC3)C2)cc1-c1cc(N2CCOCC2)c2nccn2c1 (stereo not drawn) [US11814384, Example 60] | in the range around 5.5 nM; also recorded: in the range around 55 nM |
| Cc1cc(F)c(NC(=O)N2CCC(C(C)C(F)F)C2)cc1-c1cc(N2CCOCC2)c2nccn2c1 (stereo not drawn) [US11814384, Example 87] | in the range around 5.5 nM; also recorded: in the range around 55 nM |
